{"source": "patent US9375010B2", "about": "(priority 2013, dated 2016)", "key": {"[1]": {"assay": "log P by HPLC on reversed phase columns (EEC directive 79/831 Annex V.A8)", "type": "physicochemical", "conditions": "method [a]: LC-MS at pH 2.7, 0.1% formic acid in water / acetonitrile gradient, Table 1 compounds; for chromatographic logP: reversed phase HPLC column", "description": "Calibration was done with not branched alkan2-ones (with 3 to 16 carbon atoms) with known log P-values (measurement of log P values using retention times with linear interpolation between successive alkanones). lambda-maX-values were determined using UV-spectra from 200 nm to 400 nm and the peak values of the chromatographic signals."}, "Phytophthora infestans": {"tested_on": "Phytophthora infestans", "type": "in vivo", "conditions": "500 ppm active ingredient, preventive spray on young tomato plants, evaluated 5 days after inoculation"}, "Plasmopara viticola": {"tested_on": "Plasmopara viticola", "assay": "Plasmopara test (grapevines)/preventive", "type": "in vivo", "conditions": "10 ppm active ingredient, preventive spray on young grapevine plants, evaluated 6 days after inoculation", "description": "To produce a suitable preparation of active compound, 1 part by weight of active compound is mixed with the stated amounts of solvent and emulsifier, and the concentrate is diluted with water to the desired concentration.\nTo test for preventive activity, young plants are sprayed with the preparation of active compound at the stated rate of application. After the spray coating has dried on, the plants are inoculated with an aqueous spore suspension of Plasmopara viticola and then remain for 1 day in an incubation cabinet at approximately 20° C. and a relative atmospheric humidity of 100%. The plant is subsequently placed for 4 days in a greenhouse at approximately 21° C. and a relative atmospheric humidity of approximately 90%. The plants are then misted and placed for 1 day in an incubation cabinet.\nThe test is evaluated 6 days after the inoculation. 0% means an efficacy which corresponds to that of the untreated control, while an efficacy of 100% means that no disease is observed."}, "Septoria tritici": {"tested_on": "Septoria tritici", "assay": "In vivo preventive test on Septoria tritici (leaf spot on wheat)", "conditions": "500 ppm active ingredient, preventive spray on young wheat plants, evaluated 24 days after inoculation", "description": "The tested active ingredients are prepared by homogenization in a mixture of acetone/Dimethyl sulfoxide/tween®, and then diluted with water to obtain the desired active material concentration.\nThe young plants of wheat are treated by spraying the active ingredient prepared as described above. Control plants are treated only with an aqueous solution of acetone/Dimethyl sulfoxide/tween®.\nAfter 24 hours, the plants are contaminated by spraying the leaves with an aqueous suspension of Septoria tritici spores. The contaminated wheat plants are incubated for 72 hours at 18° C. and at 100% relative humidity and then for 21 days at 20° C. and at 90% relative humidity.\nThe test is evaluated 24 days after the inoculation. 0% means an efficacy which corresponds to that of the control plants while an efficacy of 100% means that no disease is observed."}}}
{"smiles": "Cn1oc(=O)nc1C(=NOCc1csc(C=CCc2ccccc2)n1)c1ccccc1", "note": "[Example 20]", "values": [{"measurement": "LogP", "setting": "[1]", "result": "3.85^[a]"}]}
{"smiles": "Cn1oc(=O)nc1/C(=N\\OCc1cccc(C#CC2CC2)n1)c1ccccc1", "note": "[Example 6]", "values": [{"measurement": "LogP", "setting": "[1]", "result": "3.02^[a]"}]}
{"smiles": "Cn1oc(=O)nc1/C(=N\\OCc1csc(C#CC2CCCCC2)n1)c1ccccc1", "note": "[Example 14]", "values": [{"measurement": "LogP", "setting": "[1]", "result": "4.44^[a]"}]}
{"smiles": "CCCCON=C(C)Nc1cccc(CO/N=C(/c2ccccc2)c2nc(=O)on2C)n1", "note": "[Example 5]", "values": [{"measurement": "LogP", "setting": "[1]", "result": "3.35^[a]"}]}
{"smiles": "Cn1oc(=O)nc1/C(=N\\OCc1csc(C#CC2CC2)n1)c1ccccc1", "note": "[Example 12, 3-[(Z)-({[2-(cyclopropylethynyl)-1,3-thiazol-4-yl]methoxy}imino)(phenyl)methyl]-2-methyl-1,2,4-oxadiazol-5(2H)-one]", "values": [{"measurement": "chromatographic logP", "setting": "[1]", "result": 3.13}, {"measurement": "% efficacy", "setting": "Phytophthora infestans", "result": 100, "unit": "%"}, {"measurement": "% efficacy", "setting": "Plasmopara viticola", "result": 73, "unit": "%"}]}
{"smiles": "Cn1oc(=O)nc1C(=NOCc1csc(C#CCc2ccccc2)n1)c1ccccc1", "note": "[Example 18]", "values": [{"measurement": "LogP", "setting": "[1]", "result": "3.74^[a]"}, {"measurement": "% efficacy", "setting": "Phytophthora infestans", "result": 98, "unit": "%"}]}
{"smiles": "Cn1c(C(=NOCc2csc(C#CC3CC3)n2)c2ccccc2)noc1=O", "note": "[Example 17]", "values": [{"measurement": "LogP", "setting": "[1]", "result": "3.76^[a]"}, {"measurement": "% efficacy", "setting": "Phytophthora infestans", "result": 99, "unit": "%"}]}
{"smiles": "Cn1c(/C(=N\\OCc2cccc(C#Cc3ccccc3)n2)c2ccccc2)noc1=O", "note": "[Example 15]", "values": [{"measurement": "LogP", "setting": "[1]", "result": "4.26^[a]"}, {"measurement": "% efficacy", "setting": "Phytophthora infestans", "result": 80, "unit": "%"}]}
{"smiles": "CCCCON=C(C)Nc1cccc(CO/N=C(/c2ccccc2)c2noc(=O)n2C)n1", "note": "[Example 7]", "values": [{"measurement": "LogP", "setting": "[1]", "result": "3.69^[a]"}, {"measurement": "% efficacy", "setting": "Phytophthora infestans", "result": 100, "unit": "%"}]}
{"smiles": "Cn1c(C(=NOCc2csc(C#CCc3ccccc3)n2)c2ccccc2)noc1=O", "note": "[Example 19]", "values": [{"measurement": "LogP", "setting": "[1]", "result": "4.37^[a]"}, {"measurement": "% efficacy", "setting": "Phytophthora infestans", "result": 90, "unit": "%"}, {"measurement": "% efficacy", "setting": "Septoria tritici", "result": 79, "unit": "%"}]}
{"smiles": "CC(=NOCc1ccccc1)Nc1cccc(CO/N=C(/c2ccccc2)c2noc(=O)n2C)n1", "note": "[Example 9]", "values": [{"measurement": "LogP", "setting": "[1]", "result": "3.73^[a]"}, {"measurement": "% efficacy", "setting": "Phytophthora infestans", "result": 100, "unit": "%"}]}
{"smiles": "Cn1oc(=O)nc1/C(=N\\OCc1cccc(C#Cc2ccccc2)n1)c1ccccc1", "note": "[Example 4, 2-methyl-3-[(Z)-phenyl({[6-(phenylethynyl)pyridin-2-yl]methoxy}imino)methyl]-1,2,4-oxadiazol-5(2H)-one]", "values": [{"measurement": "chromatographic logP", "setting": "[1]", "result": 3.63}, {"measurement": "% efficacy", "setting": "Phytophthora infestans", "result": 98, "unit": "%"}]}
{"smiles": "CC(=NOCc1ccccc1)Nc1cccc(CO/N=C(/c2ccccc2)c2nc(=O)on2C)n1", "note": "[Example 8]", "values": [{"measurement": "LogP", "setting": "[1]", "result": "3.09^[a]"}, {"measurement": "% efficacy", "setting": "Phytophthora infestans", "result": 100, "unit": "%"}, {"measurement": "% efficacy", "setting": "Plasmopara viticola", "result": 92, "unit": "%"}]}
{"smiles": "CC(=NO)Nc1cccc(CO/N=C(/c2ccccc2)c2nc(=O)on2C)n1", "note": "[Example 1]", "values": [{"measurement": "LogP", "setting": "[1]", "result": "1.29^[a]"}, {"measurement": "% efficacy", "setting": "Phytophthora infestans", "result": 99, "unit": "%"}]}
{"smiles": "CC(=NO)Nc1cccc(CO/N=C(/c2ccccc2)c2noc(=O)n2C)n1", "note": "[Example 2, N′-hydroxy-N-{6-[({[(Z)-(4-methyl-5-oxo-4,5-dihydro-1,2,4-oxadiazol-3-yl)(phenyl)methylene]amino}oxy)methyl]pyridin-2-yl}ethanimidamide]", "values": [{"measurement": "chromatographic logP", "setting": "[1]", "result": 1.86}, {"measurement": "% efficacy", "setting": "Phytophthora infestans", "result": 100, "unit": "%"}, {"measurement": "% efficacy", "setting": "Septoria tritici", "result": 71, "unit": "%"}]}
{"smiles": "CC(=NOCC1CC1)Nc1cccc(CO/N=C(/c2ccccc2)c2noc(=O)n2C)n1", "note": "[Example 3, N′-(cyclopropylmethoxy)-N-{6-[({[(Z)-(4-methyl-5-oxo-4,5-dihydro-1,2,4-oxadiazol-3-yl)(phenyl)methylene]amino}oxy)methyl]pyridin-2-yl}ethanimidamide]", "values": [{"measurement": "chromatographic logP", "setting": "[1]", "result": 3.39}, {"measurement": "% efficacy", "setting": "Phytophthora infestans", "result": 99, "unit": "%"}]}
{"smiles": "Cn1c(C(=NOCc2cccc(C=Cc3ccccc3)n2)c2ccccc2)noc1=O", "note": "[Example 23]", "values": [{"measurement": "LogP", "setting": "[1]", "result": "4.37^[a]"}, {"measurement": "% efficacy", "setting": "Phytophthora infestans", "result": 92, "unit": "%"}, {"measurement": "% efficacy", "setting": "Septoria tritici", "result": 97, "unit": "%"}]}
{"smiles": "Cn1oc(=O)nc1/C(=N\\OCc1cccc(C#CC(C)(C)C)n1)c1ccccc1", "note": "[Example 11]", "values": [{"measurement": "LogP", "setting": "[1]", "result": "3.72^[a]"}, {"measurement": "% efficacy", "setting": "Phytophthora infestans", "result": 100, "unit": "%"}, {"measurement": "% efficacy", "setting": "Plasmopara viticola", "result": 100, "unit": "%"}]}
{"smiles": "Cn1oc(=O)nc1C(=NOCc1csc(C=CC2CCCCC2)n1)c1ccccc1", "note": "[Example 22]", "values": [{"measurement": "LogP", "setting": "[1]", "result": "4.64^[a]"}, {"measurement": "% efficacy", "setting": "Phytophthora infestans", "result": 95, "unit": "%"}, {"measurement": "% efficacy", "setting": "Septoria tritici", "result": 71, "unit": "%"}]}
{"smiles": "CCCCC#Cc1cccc(CO/N=C(/c2ccccc2)c2nc(=O)on2C)n1", "note": "[Example 10]", "values": [{"measurement": "LogP", "setting": "[1]", "result": "3.81^[a]"}, {"measurement": "% efficacy", "setting": "Phytophthora infestans", "result": 100, "unit": "%"}, {"measurement": "% efficacy", "setting": "Plasmopara viticola", "result": 96, "unit": "%"}]}
{"smiles": "Cn1c(C(=NOCc2cccc(C=CC3CC3)n2)c2ccccc2)noc1=O", "note": "[Example 21]", "values": [{"measurement": "LogP", "setting": "[1]", "result": "3.48^[a]"}]}
{"smiles": "Cn1c(/C(=N\\OCc2cccc(C#CC3CC3)n2)c2ccccc2)noc1=O", "note": "[Example 13]", "values": [{"measurement": "LogP", "setting": "[1]", "result": "3.65^[a]"}]}
{"smiles": "Cn1c(/C(=N\\OCc2csc(C#CC3CCCCC3)n2)c2ccccc2)noc1=O", "note": "[Example 16]", "values": [{"measurement": "LogP", "setting": "[1]", "result": "5.08^[a]"}, {"measurement": "% efficacy", "setting": "Phytophthora infestans", "result": 78, "unit": "%"}]}
